This is an account of results in US12662491B2 (Redona Therapeutics, Inc., priority 2020, dated 2026).

SMILES strings stand for the structures. A value given as a limit tells only on which side of the number the result lay.

The target of this assay is T1, Zcchc11 enzyme (Homo sapiens, UniProt Q5TAX3).
T1 construct: made in house; host or cells: HEK293 cells (Zcchc11); E. coli Rosetta II (LIN28A)
T1 sequence (Q5TAX3 212-1420): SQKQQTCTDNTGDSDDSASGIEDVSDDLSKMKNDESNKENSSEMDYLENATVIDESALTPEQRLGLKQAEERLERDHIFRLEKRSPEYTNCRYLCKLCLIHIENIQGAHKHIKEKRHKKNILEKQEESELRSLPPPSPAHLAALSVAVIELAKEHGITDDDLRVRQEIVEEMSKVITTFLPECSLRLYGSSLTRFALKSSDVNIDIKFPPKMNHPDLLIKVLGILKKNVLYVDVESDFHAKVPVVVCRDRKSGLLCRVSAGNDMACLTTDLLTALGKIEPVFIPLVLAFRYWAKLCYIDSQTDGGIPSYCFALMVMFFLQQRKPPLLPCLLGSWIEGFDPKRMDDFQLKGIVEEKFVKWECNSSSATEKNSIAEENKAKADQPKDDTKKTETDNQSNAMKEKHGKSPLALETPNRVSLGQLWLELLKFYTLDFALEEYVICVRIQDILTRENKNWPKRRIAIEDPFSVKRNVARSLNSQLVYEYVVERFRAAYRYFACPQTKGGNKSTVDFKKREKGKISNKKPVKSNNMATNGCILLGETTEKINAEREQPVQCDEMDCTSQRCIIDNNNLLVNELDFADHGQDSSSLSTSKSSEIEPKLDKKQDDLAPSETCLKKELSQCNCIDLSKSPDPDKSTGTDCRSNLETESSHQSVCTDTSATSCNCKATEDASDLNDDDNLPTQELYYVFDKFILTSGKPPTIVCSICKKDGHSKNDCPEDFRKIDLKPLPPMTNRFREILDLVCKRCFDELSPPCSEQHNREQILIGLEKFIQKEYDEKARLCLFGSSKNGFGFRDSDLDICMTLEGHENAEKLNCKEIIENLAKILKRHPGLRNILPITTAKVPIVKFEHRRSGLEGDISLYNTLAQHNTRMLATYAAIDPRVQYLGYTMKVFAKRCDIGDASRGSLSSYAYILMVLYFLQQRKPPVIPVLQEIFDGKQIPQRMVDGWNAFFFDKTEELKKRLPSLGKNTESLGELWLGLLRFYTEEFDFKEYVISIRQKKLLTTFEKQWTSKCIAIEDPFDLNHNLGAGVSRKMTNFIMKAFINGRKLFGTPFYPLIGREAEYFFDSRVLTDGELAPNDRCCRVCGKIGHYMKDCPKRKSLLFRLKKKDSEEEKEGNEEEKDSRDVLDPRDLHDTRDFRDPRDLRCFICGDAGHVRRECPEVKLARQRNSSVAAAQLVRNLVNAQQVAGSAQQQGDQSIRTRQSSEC
Description: TUTase assay (Zcchc11 assay, Lin28a-dependent polyuridylation of pre-let-7). Type of assay: biochemical. Conditions: LIN28A 10 nM, Zcchc11 0.2 nM, 5′-fluorescein pre-let-7 miRNA 2 nM, UTP 5 uM, room temperature, 30 minutes pre-incubation; read-out: Potency Lin28a-dep Z11 IC50. Put shortly:
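HEK293-expressed human Zcchc11 (residues 212-1420, 0.2 nM) with 10 nM LIN28A and 2 nM 5′-fluorescein pre-let-7, preincubated 30 min at room temperature, pH 7.3. Started with 5 uM UTP; poly(U) tails quenched by 3′-rhodamine A20 probe, read kinetically. IC50 from early-rate four-parameter fit; no-UTP wells define 0%.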
As a reminder, the IC50 is the concentration at which inhibition is half-maximal. For the compound `Cc1cccnc1OC[C@H]1CC(C)CN1c1cc2c(cc1F)c(=O)c(C(=O)O)cn2-c1ccc(O)cc1` (stereo partly drawn) [Example 7, 6-fluoro-1-(4-hydroxyphenyl)-7-((2R)-4-methyl-2-(((3-methylpyridin-2-yl)oxy)methyl)pyrrolidin-1-yl)-4-oxo-1,4-dihydroquinoline-3-carboxylic acid], the IC50 is no more than 1000 nM. Next, `CC(Oc1ncccc1Cl)[C@H]1CCCN1c1cc2c(cc1Cl)c(=O)c(C(=O)O)cn2-c1ccccc1` (stereo partly drawn) [Example 8, (R)-6-chloro-7-(2-(1-((3-chloropyridin-2-yl)oxy)ethyl)pyrrolidin-1-yl)-4-oxo-1-phenyl-1,4-dihydroquinoline-3-carboxylic acid]: 1000 to 10000 nM; `CC1(n2cc(C(=O)O)c(=O)c3cc(Cl)c(N4CCC[C@@H]4COc4ncccc4Cl)c(F)c32)CC1` [Example 9, (R)-6-chloro-7-(2-(((3-chloropyridin-2-yl)oxy)methyl)pyrrolidin-1-yl)-8-fluoro-1-(1-methylcyclopropyl)-4-oxo-1,4-dihydroquinoline-3-carboxylic acid]: 1000 to 10000 nM.

With `CN(C[C@H]1CCCN1c1cc2c(cc1F)c(=O)c(C(=O)O)cn2-c1ccc(O)cc1)c1ncccc1Cl` [Example 10, (R)-7-(2-(((3-chloropyridin-2-yl)(methyl)amino)methyl)pyrrolidin-1-yl)-6-fluoro-1-(4-hydroxyphenyl)-4-oxo-1,4-dihydroquinoline-3-carboxylic acid], the IC50 was in the range of 1000 to 10000 nM. `O=C(O)c1cn(-c2ccc(O)cc2)c2cc(N3CCC[C@@H]3Cn3ccc4ncccc43)c(F)cc2c1=O` [Example 11, (R)-7-(2-((1H-pyrrolo[3,2-b]pyridin-1-yl)methyl)pyrroledin-1-yl)-6-fluoro-1-(4-hydroxyphenyl)-4-oxo-1,4-dihydroquinoline-3-carboxylic acid]: the IC50 was no more than 1000 nM.

Regarding `O=C(O)c1cn(-c2ccc(O)cc2)c2cc(N3CCC[C@@H]3COc3cc4[nH]ccc4cn3)c(F)cc2c1=O` [Example 12, (R)-7-(2-(((1H-pyrrolo[3,2-c]pyridine-6-yl)oxy)methyl)pyrrolidin-1-yl)-6-fluoro-1-(4-hydroxyphenyl)-4-oxo-1,4-dihydroquinoline-3-carboxylic acid], the IC50 is no more than 1000 nM. To `Cc1cccnc1OC[C@H]1CCCN1c1cc2c(cc1F)c(=O)c(C(=O)O)cn2-c1ccc(N)nc1` [Example 13, (R)-1-(6-aminopyridin-3-yl)-6-fluoro-7-(2-(((3-methylpyridin-2-yl)oxy)methyl)pyrrolidin-1-yl)-4-oxo-1,4-dihydroquinoline-3-carboxylic acid] belongs no more than 1000 nM; to `Cc1cccnc1OC[C@H]1CCCN1c1cc2c(cc1F)c(=O)c(C(=O)O)cn2C1CCOCC1` [Example 14, 6-fluoro-7-[(2R)-2-[[(3-methylpyridin-2-yl)oxy]methyl]pyrrolidin-1-yl]-1-(oxan-4-yl)-4-oxoquinoline-3-carboxylic acid], no more than 1000 nM; to `Cc1cccnc1OC[C@H]1CCCN1c1cc2c(cc1F)c(=O)c(C(=O)O)cn2-c1cnccn1` [Example 15, (R)-6-fluoro-7-(2-(((3-methylpyridin-2-yl)oxy)methyl)pyrrolidin-1-yl)-4-oxo-1-(pyrazin-2-yl)-1,4-dihydroquinoline-3-carboxylic acid], no more than 1000 nM. Next, `CN(C)CCOc1cnc(-n2cc(C(=O)O)c(=O)c3cc(F)c(N4CCC[C@@H]4COc4ncccc4Cl)cc32)cn1` [Example 16, (R)-7-(2-(((3-chloropyridin-2-yl)oxy)methyl)pyrrolidin-1-yl)-1-(5-(2-(dimethylamino)ethoxy)pyrazin-2-yl)-6-fluoro-4-oxo-1,4-dihydroquinoline-3-carboxylic acid]: no more than 1000 nM. Next, `Cc1cccnc1OC[C@H]1CCCN1c1cc2c(cc1F)c(=O)c(C(=O)O)cn2-c1ccc(OCCN(C)C)cc1` [Example 17, (R)-1-(4-(2-(dimethylamino)ethoxy)phenyl)-6-fluoro-7-(2-(((3-methylpyridin-2-yl)oxy)methyl)pyrrolidin-1-yl)-4-oxo-1,4-dihydroquinoline-3-carboxylic acid]: no more than 1000 nM; `O=C(O)c1cn(-c2ccc3c(c2)COC3)c2cc(N3CCC[C@@H]3COc3ncccc3Cl)c(Cl)cc2c1=O` [Example 18, (R)-6-chloro-7-(2-(((3-chloropyridin-2-yl)oxy)methyl)pyrrolidin-1-yl)-1-(1,3-dihydroisobenzofuran-5-yl)-4-oxo-1,4-dihydroquinoline-3-carboxylic acid]: no more than 1000 nM. On to `O=C(O)c1cn(-c2cnccn2)c2nc(N3CCC[C@@H]3COc3ncccc3Cl)c(Cl)cc2c1=O` [Example 19, (R)-6-chloro-7-(2-(((3-chloropyridin-2-yl)oxy)methyl)pyrrolidin-1-yl)-4-oxo-1-(pyrazin-2-yl)-1,4-dihydro-1,8-naphthyridine-3-carboxylic acid], for which the IC50 was no more than 1000 nM.

On to `Cc1cccnc1OC[C@H]1CCCN1c1c(F)cc2c(=O)c(C(=O)O)cn(-c3ccc(O)cc3F)c2c1F` [Example 20, (R)-6,8-difluoro-1-(2-fluoro-4-hydroxyphenyl)-7-(2-(((3-methylpyridin-2-yl)oxy)methyl)pyrrolidin-1-yl)-4-oxo-1,4-dihydroquinoline-3-carboxylic acid], for which the IC50 was no more than 1000 nM.

Take `O=C(O)c1cn(-c2ccc(OCCO)cc2)c2cc(N3CCC[C@@H]3COc3ncccc3Br)c(F)cc2c1=O` [Example 21, (R)-7-(2-(((3-bromopyridin-2-yl)oxy)methyl)pyrrolidin-1-yl)-6-fluoro-1-(4-(2-hydroxyethoxy)phenyl)-4-oxo-1,4-dihydroquinoline-3-carboxylic acid]: the IC50 was no more than 1000 nM.

As to `O=C(O)c1cn(-c2ccc(O)cc2F)c2cc(N3CCC[C@@H]3COc3ncccn3)c(F)cc2c1=O` [Example 22, (R)-6-fluoro-1-(2-fluoro-4-hydroxyphenyl)-4-oxo-7-(2-((pyrimidin-2-yloxy)methyl)pyrrolidin-1-yl)-1,4-dihydroquinoline-3-carboxylic acid], the IC50 lay in the range of 1000 to 10000 nM. `Cc1ccnn(C[C@H]2CCCN2c2cc3c(cc2F)c(=O)c(C(=O)O)cn3-c2ccc(O)cc2)c1=O` [Example 23, (R)-6-fluoro-1-(4-hydroxyphenyl)-7-(2-((5-methyl-6-oxopyridazin-1(6H)-yl)methyl)pyrrolidin-1-yl)-4-oxo-1,4-dihydroquinoline-3-carboxylic acid]: the concentration for half-maximal inhibition (IC50) is no more than 1000 nM. To `CC1(n2cc(C(=O)O)c(=O)c3cc(Cl)c(N4C(=O)CC[C@@H]4COc4ccccn4)cc32)CC1` [Example 24, (R)-6-chloro-1-(1-methylcyclopropyl)-4-oxo-7-(2-oxo-5-((pyridin-2-yloxy)methyl)pyrrolidin-1-yl)-1,4-dihydroquinoline-3-carboxylic acid] belongs greater than 50000 nM.

On to `COCC1CC(n2cc(C(=O)O)c(=O)c3cc(F)c(N4CCC[C@@H]4COc4ccccn4)cc32)C1` (stereo partly drawn) [Example 25, 6-fluoro-1-[3-(methoxymethyl)cyclobutyl]-4-oxo-7-[(2R)-2-[(pyridin-2-yloxy)methyl]pyrrolidin-1-yl]-1,4-dihydroquinoline-3-carboxylic acid], for which the IC50 was in the range of 10000 to 50000 nM. Next, `CS(=O)(=O)Nc1ccc(-n2cc(C(=O)O)c(=O)c3cc(Cl)c(N4CCC[C@@H]4COc4ncccc4Cl)cc32)cn1` [Example 26, 6-chloro-7-[(2R)-2-{[(3-chloropyridin-2-yl)oxy]methyl}pyrrolidin-1-yl]-1-(6-methanesulfonamidopyridin-3-yl)-4-oxo-1,4-dihydroquinoline-3-carboxylic acid]: no more than 1000 nM; `O=C(O)c1cn(-c2cncc(O)n2)c2cc(N3CCC[C@@H]3COc3ccccn3)c(F)cc2c1=O` [Example 27, (R)-6-fluoro-1-(6-hydroxypyrazin-2-yl)-4-oxo-7-(2-((pyridin-2-yloxy)methyl)pyrrolidin-1-yl)-1,4-dihydroquinoline-3-carboxylic acid]: 1000 to 10000 nM.
